Read-outs that look alike come from different tables or passages of the source.
How the values were obtained:
silkworm eggs [1] = settings: cited from earlier work; for hatching rate: silkworm eggs 20 h after oviposition, 15% acid treatment (Manqiao Jiang et al.)
silkworm eggs [2] = experiment: Practical hatching rate of silkworm eggs after immersion treatment; format: in vivo, Bombyx mori; settings: "Liangguang 2" quaternary hybrid, 18 h after laying, specific gravity 1.075, 46° C. for 5 min
Procedure: After laying eggs, “Liangguang 2” silkworm eggs were placed at 25° C.±1° C. and a humidity of 80%±5% for protection; the silkworm eggs with egg ages of 11 h, 13 h, 15 h, 17 h, 19 h, 21 h and 23 h were placed in an aqueous solution (containing 0.2 g/L of chitosan, 0.1 g/L of hydroxypropyl cellulose and 0.1 g/L of γ-aminobutyric acid) and then treated at 50° C. for 15 s, followed by taking out and air-drying for 25 min; and the silkworm eggs were subjected to incubation and hatching, wherein 3 replicates were set for each treatment. A practical hatching rate was calculated according to formula I, and an egg age-practical hatching rate curve was drawn. Practical hatching rate (%)=number of newly-hatched silkworms in two days/the total number of good eggs×100% formula I
17 h after laying eggs, silkworm eggs of a “Liangguang 2” quaternary hybrid were treated in a 50° C. aqueous solution (containing 0.1 g/L of chitosan, 0.2 g/L of hydroxypropyl cellulose and 0.05 g/L of γ-aminobutyric acid) for 20 s, followed by taking out for air-drying, incubation and hatching.
A practical hatching rate was counted. […]

[3] = test system: silkworm eggs of a "Liangguang 2" quaternary hybrid; experiment: Feeding results of larvae after treating silkworm eggs by warm water hatching and hydrochloric acid hatching; format: in vivo, Bombyx mori; settings: eggs treated 18 h after laying, larvae fed after hatching
Procedure: 18 h after laying eggs, silkworm eggs of a “Liangguang 2” quaternary hybrid were treated in a hydrochloric acid solution (at a specific gravity of 1.075, 46° C.) for 5 min, followed by taking out for air-drying, incubation and hatching. Statistics was conducted on cocooning rate, whole cocoon weight, cocoon shell weight, cocoon shell rate and 10,000-silkworm cocoon weight.
18 h after laying eggs, silkworm eggs of a “Liangguang 2” quaternary hybrid were treated in a 50° C. warm aqueous solution (containing 0.2 g/L of chitosan, 0.1 g/L of hydroxypropyl cellulose and 0.1 g/L of γ-aminobutyric acid) for 20 s, followed by taking out for air-drying, incubation and hatching. Statistics was conducted on cocooning rate, whole cocoon weight, cocoon shell weight, cocoon shell rate and 10,000-silkworm cocoon weight.

SMILES: CC(=O)O [acetic acid]
- hatching rate (silkworm eggs [1]): relatively low hatching rate

SMILES: C[S+](C)[O-] [dimethyl sulfoxide]
- effect of preventing diapause (silkworm eggs [1]; Yamamoto et al.): 78%

SMILES: Cl [hydrochloric acid]
- hatching rate (silkworm eggs [2]): 95.86%
- 10,000-silkworm cocoon weight [3]: 13.05 kg
- Cocoon shell rate [3]: 19.42%
- Cocoon shell weight [3]: 0.26 g
- Cocooning rate [3]: 96.27%
- Whole cocoon weight [3]: 1.35 g

SMILES: O=[N+]([O-])O [nitric acid]
- hatching rate (silkworm eggs [1]): not less than 95%

SMILES: O=P(O)(O)O [phosphoric acid]
- hatching rate (silkworm eggs [1]): relatively low hatching rate

From patent publication US12058988B2, “Warm water immersion-based hatching method of silkworm eggs” (Sericulture and Agri-Food Research Institute, Guangdong …, priority 2021, dated 2024)
